Where “and” joins values, the source holds several entries; their conditions need not be identical. Equal entries are not always repeated.

This is an account of results in US12533309B2, “Minoxidil adjuvant therapies” (JUPITER WELLNESS, INC., priority 2018, dated 2026).

In the assay the test system is sulfotransferase in hair follicles. The assay can be described thus: In-vitro evaluation of sulfotransferase up-regulation in plucked hair follicles. The format is cell-based, human. The settings on record: for OD 405 (1)-(3), individual replicates / OD 405 Average: 24 h incubation, patient AB-001; for induction of sulfotransferase activity in plucked hair follicles (conclusion): 24 h. As for the experimental part: The following experiment was conducted to assess the up-regulation of sulfotransferase in hair follicles by candidate compounds know to interact with human nuclear receptors (e.g., PXR and CAR).
Method: For each compound tested, 24 hairs were plucked from a human subject. […] 1 uL of DMSO with no compound was added to control samples. Hairs were allowed to incubate with the candidate compounds for 24 h at room temperature. All samples were run in triplicate, i.e., the data describe in the result section is an average of three samples tested.
After 24 h of incubation hairs were removed from the sample media and washed briefly with clean water. Hairs were trimmed to a length of ˜1 cm and immersed, bulb first, in 100 μL of an assay solution containing 50 mM phosphate buffer (pH8), 5 mM potassium p-nitrophenyl sulfate, 20 μM adenosine 3′,5′-diphosphate, 100 μM minoxidil and 5 mM MgCl2. Hairs were allowed to react with the solution for 24 hours at room temperature. After incubation, hairs were removed and the optical absorbance of the solution at 405 nm was determined with a spectrophotometer using a single scan and 1 cm path length.

Where [1] appears, read: 10 uM, DMSO control average 0.120 (Vitamin K2 run), 0.241 (Genistein run).
Where [2] appears, read: 25 uM, DMSO control average 0.241.
Where [3] appears, read: 50 uM, DMSO control average 0.241.
[4] abbreviates: 0.2 uM, DMSO control average 0.195.
The mark [5] stands for this setting: 1 uM, DMSO control average 0.195.
Where [6] appears, read: 5 uM, DMSO control average 0.120 (Vitamin K2 run), 0.195 (Hyperforin run).
[7] abbreviates: 20 uM, DMSO control average 0.120.

With `O=c1c(-c2ccc(O)cc2)coc2cc(O)cc(O)c12` [Genistein, genistein], the “induction of sulfotransferase activity in plucked hair follicles (conclusion)” value (shortened to “induction of sulfotransferase activity”) is listed as “induced sulfotransferase activity”. For the same molecule, under setting [1], the “OD 405 (1)-(3), individual replicates” value was 0.186 and 0.235 and 0.134; the “OD 405 Average” value is given as 0.185. Besides, under setting [2], the “OD 405 (1)-(3), individual replicates” value is 0.179 and 0.144 and 0.085; the “OD 405 Average” value stood at 0.136. For the same molecule, under setting [3], the “OD 405 (1)-(3), individual replicates” value was 0.122 and 0.080 and 0.190; the “OD 405 Average” value was 0.131.
As for `CC(C)=CCC[C@]1(C)[C@@H](CC=C(C)C)C[C@@]2(CC=C(C)C)C(=O)[C@]1(C(=O)C(C)C)C(=O)C(CC=C(C)C)=C2O` [Hyperforin, hyperforin], the “induction of sulfotransferase activity” value was “induced sulfotransferase activity”. For the same molecule, under setting [4], the “OD 405 (1)-(3), individual replicates” value was 0.411 and 0.360 and 0.298; the “OD 405 Average” value was found to be 0.356. Under setting [5], the “OD 405 (1)-(3), individual replicates” value is 0.475 and 0.402 and 0.369; the “OD 405 Average” value amounted to 0.415. Besides, under setting [6], the “OD 405 (1)-(3), individual replicates” value is 0.523 and 0.506 and 0.489; the “OD 405 Average” value worked out at 0.506.
Take `CC(C)=CCC/C(C)=C/CC/C(C)=C/CC/C(C)=C/CC1=C(C)C(=O)c2ccccc2C1=O` [Vitamin K2, vitamin K2]: the “induction of sulfotransferase activity” value is recorded as “induced sulfotransferase activity”. Under setting [6], the “OD 405 (1)-(3), individual replicates” value was 0.176 and 0.211 and 0.173; the “OD 405 Average” value was determined as 0.187. Besides, under setting [1], the “OD 405 (1)-(3), individual replicates” value was 0.339 and 0.138 and 0.180; the “OD 405 Average” value was 0.219. Moreover, under setting [7], the “OD 405 (1)-(3), individual replicates” value was 0.145 and 0.208 and 0.144; the “OD 405 Average” value is 0.166.
